From patent US9150899B2, “Identification of compounds modifying a cellular response” (2cureX, priority 2004, dated 2015)
Non-standard residues stand in square brackets, D forms with d. No end group written: not given here.

Tested on: GFP expressing U2OS cells and GFP expressing Hek293 cells
Test: Screening of adhesion D-amino peptide library for low fluorescence/high adherence properties
Format: cell-based, Human
Settings: re-synthesized adhesion peptides on PEGA beads; six re-synthesized plus four additional peptides compared
Protocol: Approx. 100 adhesion peptide library beads were mixed with 1×10E6 cells (BHK, CHO, U2OS, Hek) in each well of a Falcon 12 well plate using 2 ml growth medium. The adhesion peptide library was prepared according to the general methods for solid phase peptide synthesis outlined above. The library consisted of heptamers of D-amino acids. The peptide library beads were PEGA beads each coupled to a potential adhesion peptide. The cells and beads were mixed gently every 15 min for 2 hrs. Supernatant with non-attached cells were removed and new growth medium added. Cells/beads were incubating for another 16 hrs. (37° C., 5% CO2). Cell adhesive beads were identified using a microscope with 10× objective and positive beads were transferred to a filter paper (to suck off medium). Peptides were identified by amino acid sequencing.
An adhesion D-amino peptide library was synthesized (500.000 members) as described above in Example 2a and screened for low fluorescence/high adherence properties. This was done in 4 steps: • 1) Selection of low fluorescent beads by Fluorescence Activated Bead Sorting (FABS). […]
The 150.000 low fluorescent beads were incubated with GFP expressing U2OS cells followed by FABS sorting for high fluorescence (high cell adhesion). […] 47 beads with high cell adhesion properties were isolated using a fluorescence microscope. • 4) Sequence elucidation and re-synthesis of selected peptides. […]

SEQ ID 35: adhesion peptide arg gln arg ile arg (D-amino acids) ([dR][dQ][dR][dI][dR])
overall performance (low fluorescence/high adherence properties): best overall performance
